# Assay results taken from US9351485B2, “Use of sophorolipids and derivatives thereof in combination with pesticides as adjuvant/additive for plant protection and the industrial non-crop field” (EVONIK DEGUSSA GMBH, priority 2009, dated 2016).
# Test system: mildew fungus Blumeria graminis f. sp. hordei (race A6)
# Test: Protective fungicide glasshouse trial on barley (mildew)
# Format: in vivo
# Conditions: Table 6; Sulfur 250 g/ha, no adjuvant; 10 days after application
# Source text: The plants (barley) were cultivated under glass in exactly the same way as in the curative trial. For the protective trials, however, the plants were sprayed at about three weeks old with spray solutions containing the active fungicidal ingredient sulfur (Microthiol WG 80% sulfur from Stähler), either alone or in combination with adjuvants/additives. Furthermore, in order to test for synergy, the adjuvant was applied in the spray solution alone, in other words without sulfur. The sulfur dose was 1000 ppm/l, while the adjuvants were used in different doses (for doses see results tables). The amount of spray solution was 250 l/ha, and so the adjuvant concentration in the spray solution was not more than 0.1%; the sulfur dose was 250 g/ha. […]
# The activity of the adjuvant alone, of the pesticide alone (i.e., of the fungicides or herbicides), and of the pesticide/adjuvant combination was calculated, in a manner known to the skilled person, in comparison to an untreated control sample, which was nevertheless inoculated with the mildew fungus, and expressed in % control of the disease.
structure (smiles),measurement,value
"S1SSSSSSS1 [Sulfur, sulfur]",Efficacy (%),46%
